# Experimental data taken from publication PMC6905855, “Agonist-specific voltage-dependent gating of lysosomal two-pore Na^+ channels” (eLife, 2019).
# “And” between values parts separate entries of the source, which are not always exact repeats. Identical values can stand only once. “Also recorded” adds a separate entry of the source.
# What was measured:
# [1] = target: T1, hTPC2 (Homo sapiens, UniProt Q8NHX9); assay: Whole-endolysosome recordings of ITPC2; type: biochemical; conditions: for inactivation of ITPC2, I500ms / I10ms: @-120mV; for PX / PNa, Ca2+ / PX / PNa, K+ / PX / PNa, Na+: TPC2 WT, agonist-activated ITPC2; for ITPC2: whole endolysosome recordings with 100 µM of LyNa-VAs at −120 mV
# T1 construct: expressed in transfected cells; host or cells: Cos1 and HEK293
# [2] = test system: T2, hTPC1^R540I; assay: Whole-endolysosome recordings of ITPC1-R540I; type: biochemical, human
# T2 construct: expressed in transfected cells; host or cells: Cos1
# [3] = target: T3, hTPC1 (Homo sapiens, UniProt Q9ULQ1); assay: Whole-endolysosome recordings of ITPC1; type: biochemical
# T3 construct: expressed in transfected cells; host or cells: Cos1
# Procedure: It was therefore of interest to explore whether TCAs/LyNa-VAs could also act on TPC1. To investigate this, we used two different voltage paradigms. […] Second, we used a tail current paradigm to measure the amplitude of the peak inward current at −120 mV following prolonged steps to various potentials (Figure 4E).
# Figure 4. […] HP = 0 mV. […] Dotted lines in A indicate where the currents were measured. […] Data are presented as Mean ± S.E.M (n = 3 patches). […] (G) Normalized I-V plots of basal voltage-dependent currents in WT TPC1- and TPC1^R540I-transfected cells. […] Figure 4—source data 1. […] Figure 4—figure supplement 1. […] (A) A voltage protocol that elicited ITPC1 tail currents as shown in Figure 4E (from −140 to 100 mV with a ∆V = 20 mV, 1 s with a 10 s inter-step interval). Arrows indicate where tail currents were measured. (B) A voltage protocol that elicited ITPC1 tail currents as shown in C. […] HP = 0 mV. […] (A) Basal whole-endolysosome ITPC1 (left) or ITPC1-R540I (right) was elicited by voltage steps (−140 to +100 mV with ΔV = 20 mV) in the absence of PI(3,5)P2 in TPC1-transfected Cos1 cells ([She et al., 2019]). Tail currents were elicited at −120 mV. (B) The effects of PI(3,5)P2 (0.3 µM) on ITPC1 (left) and ITPC1-R540I (right) step currents. […] A preconditioning voltage (+80 mV, 0.1 s) was applied before voltage steps starting from −140 to 100 mV (0.5 s, ∆V = 20 mV).
# (§1) All TPC1 and TPC2 mutants were generated with a site-directed mutagenesis kit (Qiagen) using EGFP- human TPC1 and TPC2 as the templates. All constructs were confirmed by DNA sequencing.
# (§2) Whole-endolysosome recordings were performed on manually isolated enlarged endolysosomes ([Wang et al., 2012]). In brief, a patch pipette was pressed against a cell and quickly pulled away to slice the cell membrane. Enlarged endolysosomes were released into a dish and identified by monitoring EGFP-TPC1/2 or the mCherry-TPC1/2 fluorescence. After formation of a gigaseal between the patch pipette and the enlarged endolysosome, capacitance transients were compensated. Voltage steps of several hundred mVs with millisecond duration were then applied to break into the vacuolar membrane. The whole-endolysosome configuration was verified by the re-appearance of capacitance transients after break-in.
# (§3) Data were collected using an Axopatch 200A patch clamp amplifier, Digidata 1440, and pClamp 10.2 software (Axon Instruments). Whole-endolysosome currents were digitized at 10 kHz and filtered at 2 kHz. All experiments were conducted at room temperature (21–23°C), and all recordings were analyzed with pClamp 10.2, and Origin 8.0 (OriginLab, Northampton, MA). The permeability to cations (relative to PNa) was estimated based on following equations ([Lewis, 1979]) and Erev measurement under bi-ionic conditions:(1) PX/PNa=γNa/γX{[Na^+]Luminal/[X^+]Cytoplasmic}{exp([…])} (2) PCa/PNa=γNa/γCa{[Na^+]Cytoplasmic/[4[Ca^2+]Luminal}{exp(ErevF/RT)}{1+exp(ErevF/RT)} where R, T, F, Erev, and γ are, respectively, the gas constant, absolute temperature, Faraday constant, reversal potential, and activity coefficient. The liquid junction potentials were measured and corrected as described ([Neher, 1992]).
# [4] = test system: T4, TPC2^N653G; assay: Whole-endolysosome recordings of ITPC2-N653G; type: biochemical, human; conditions: TPC2 N653G, agonist-activated current
# T4 construct: expressed in transfected cells
# [5] = test system: surface-expressing mutant TRPML1 channels (TRPML1^4A); assay: Whole-cell recordings of ITRPML1-4A; type: cell-based; conditions: TRPML1-4A wc; individual cells
# [6] = test system: TPC1/2 DKO HAP1 cells; assay: Whole-endolysosome recordings in TPC1/2 DKO HAP1 cells; type: biochemical, human
# From the text: TCAs, with a general structure of an aromatic greasy core and an aliphatic chain containing a terminal amine, are lysosomotropic compounds that are known to be highly accumulating in the lysosomes due to proton trapping ([Beckmann et al., 2014]). We next tested the effects of LyNa-VAs in hTPC2-transfected Cos1 and HEK293 cells using whole-endolyosome patch-clamp.
# Data are presented as Mean ± S.E.M (n = 3 patches). […] For panels B, D and F, individual data and Mean ± S.E.M are presented. *, p<0.05; **, p<0.01; ***, p<0.001; N.S., no significance. Figure 3—source data 1. […] Figure 3—figure supplement 1. […] Both individual data points and Mean ± S.E.M are presented (n ≥ 3 patches; also see individual data in Figure 3—figure supplement 1—source data 1). Figure 3—figure supplement 1—source data 1.
# TPC1 and TPC2 CRISPR KO cells were generated in HAP1 cells using the CRISPR/Cas9 system. The TPC1 sequence (5'cttgcagtacttcagcaccc3', TPC1-sgRNA) and TPC2 sequence (5'ccccagcgtcgggctgctgc3', TPC2-sgRNA) were targeted with pSpCas9 (BB)−2A-puro vector (Addgene). HAP1 cells were co-transfected with TPC1 and TPC2-sgRNA expressing vector in the presence of Lipofectamine 2000 (In vitrogen) and selected with 2 μg/ml puromycin for 48 hr. The remaining cells were trypsinized and seeded into 96-well plate after a limiting dilution. When single cell clones were established, their genomic DNAs were extracted and amplified with following primers: TPC1-fw: 5’atggcccagacatgtgactc3’, TPC1-re: 5’ tgcctgtctccatcctctca3’; TPC2-fw: 5’tgagctgagcatgaggcaag3’, TPC2-re: 5’ aaaggacaagtggccctgag3’. The PCR amplicons were then sequenced to confirm the intended genetic disruption.
# as §2
# as §3, with “coefficient.” for “coefficient. The liquid junction potentials were measured and corrected as described ([Neher, 1992]).”
# [7] = target: T5, surface-expressing mutant TPC2 channel (TPC2^LL/AA) in HEK293 cells (Homo sapiens, UniProt Q8NHX9, L11A/L12A); assay: Whole-cell recordings of ITPC2-LL/AA; type: cell-based; conditions: for current density: whole cell recordings, individual recordings; for EC50: whole-cell recordings at −140 mV, TPC2^LL/AA-transfected HEK293 cells, read-out: EC50
# T5 construct: expressed in transfected cells; host or cells: HEK293
# From the text: We therefore characterized the responses of TPC2 channels to TCAs in detail using electrophysiological methods. We first performed whole-cell recordings in HEK293 cells that were transfected with surface-expressed TPC2 mutant channels (TPC2-L^11L^12-AA; abbreviated as TPC2^LL/AA hereafter).
# as §1
# Cells were transfected with Lipofectamine 2000 (Invitrogen). After culture media were refreshed 18–24 hr post-transfection, cells were used for the electrophysiological assays 24–36 hr post-transfection.
# All bath solutions were applied via a perfusion system that allowed complete solution exchange within a few seconds. […] Whole-cell currents were digitized at 10 kHz and filtered at 2 kHz.
# [8] = PI(3,5)P2 0.3 µM, LyNa-VA1.2 100 µM, LyNA1 300 µM, individual tests, listed as pip2
# T5 sequence (Q8NHX9 whole entry L11A/L12A): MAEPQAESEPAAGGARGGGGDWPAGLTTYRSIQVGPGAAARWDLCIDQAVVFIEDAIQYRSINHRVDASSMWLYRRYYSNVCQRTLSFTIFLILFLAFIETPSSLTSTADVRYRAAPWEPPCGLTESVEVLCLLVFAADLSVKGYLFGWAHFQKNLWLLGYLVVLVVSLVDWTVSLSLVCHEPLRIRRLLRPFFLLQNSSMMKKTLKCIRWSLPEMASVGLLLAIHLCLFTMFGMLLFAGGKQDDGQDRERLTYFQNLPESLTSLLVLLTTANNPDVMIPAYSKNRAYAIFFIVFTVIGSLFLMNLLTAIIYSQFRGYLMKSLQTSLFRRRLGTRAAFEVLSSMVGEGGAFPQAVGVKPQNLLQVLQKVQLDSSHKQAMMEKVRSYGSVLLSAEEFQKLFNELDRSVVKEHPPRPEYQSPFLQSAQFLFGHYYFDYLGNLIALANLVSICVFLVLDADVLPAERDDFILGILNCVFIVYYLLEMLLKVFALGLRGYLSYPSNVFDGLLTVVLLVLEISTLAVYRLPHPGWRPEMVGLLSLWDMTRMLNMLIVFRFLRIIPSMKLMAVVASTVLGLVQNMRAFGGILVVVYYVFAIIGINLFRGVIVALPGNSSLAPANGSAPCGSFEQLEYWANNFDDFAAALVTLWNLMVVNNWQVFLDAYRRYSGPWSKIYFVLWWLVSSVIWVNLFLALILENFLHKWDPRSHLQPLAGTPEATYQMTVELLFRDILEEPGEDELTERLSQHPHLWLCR
# T1 sequence (Q8NHX9 whole entry): as the sequence (Q8NHX9 whole entry L11A/L12A) above, with A11L, A12L counted along it
compound,measurement,setting,value
"PI(3,5)P2",voltage dependence of TPC2 activation (in words),[1],voltage independent; also recorded: no apparent voltage-dependent activation
same,"inactivation of ITPC2, I500ms / I10ms",[1]; [8],1.002 and 0.9763 and 0.9931 and 0.9868
same,"inactivation of ITPC2, I500ms / I10ms",[1]; mean,0.9895
same,"Rectification index of ITPC2, I+80mV/I-80mV",[1]; [8],0.8422 and 1.096 and 1.053 and 1.001
same,"Rectification index of ITPC2, I+80mV/I-80mV","[1]; PI(3,5)P2 0.3 µM, LyNa-VA1.2 100 µM, LyNA1 300 µM, mean",1.00 ± 0.06
same,"Rectification index of ITPC2, I+80mV/I-80mV","[1]; PI(3,5)P2 0.3 µM, LyNa-VA1.2 100 µM, LyNA1 300 µM, mean, listed as pip2",0.9981
same,"PX / PNa, Ca2+",[1]; individual,0.016 and 0.034
same,"PX / PNa, K+",[1]; individual,0.02921 and 0.09237 and 0.08877 and 0.01887
same,"PX / PNa, Na+",[1]; individual,0.9921 and 1.104 and 1
same,"PX / PNa, Ca2+",[1]; mean,0.022
same,"PX / PNa, K+",[1]; mean,0.05731
same,"PX / PNa, Na+",[1]; mean,1.032
same,activation of whole-endolysosome ITPC2 (in words),"[1]; bath application, symmetric Na^+",activated a large whole-endolysosome ITPC2 with linear I-V
same,I@500ms/I@10ms (current decline at steady state),"[1]; voltage-step protocols, at all potentials",~1.0
same,effect on ITPC1-R540I (in words),[2],large currents at all potentials
same,effect on whole-endolysosome ITPC1 (in words),[3],large enhancement at negative potentials
same,"PX / PNa, K+",[4]; individual,0.5092 and 0.6027 and 0.4961 and 0.3927
same,"PX / PNa, K+",[4]; mean,0.5002
ML-SA1,"current, whole-cell ITRPML1-4A",[5],4274.3 pA and 5928.6 pA
same,activation of ITRPML1 in TPC1/2 DKO cells (in words),[6],readily activated ITRPML1
"CN(C)CCCN1c2ccccc2Sc2ccc(Cl)cc21 [LyNa-VA2.1, Chlorpromazine]",ITPC2,[1],1101 ± 508 pA
same,effect on whole-endolysosome ITPC1 (in words),[3],inhibited ITPC1
same,"Dose-dependent inhibition of TPC1 (ITPC1, value at 0 µM = 1)","[3]; 3 µM, individual patches",0.9084 and 0.9958 and 1.027
same,"Dose-dependent inhibition of TPC1 (ITPC1, value at 0 µM = 1)","[3]; 3 µM, mean",0.9772
same,"Dose-dependent inhibition of TPC1 (ITPC1, value at 0 µM = 1)","[3]; 10 µM, individual patches",0.8547 and 1.003 and 0.8763
same,"Dose-dependent inhibition of TPC1 (ITPC1, value at 0 µM = 1)","[3]; 10 µM, mean",0.9114
same,"Dose-dependent inhibition of TPC1 (ITPC1, value at 0 µM = 1)","[3]; 30 µM, individual patches",0.8617 and 0.806 and 0.5194
same,"Dose-dependent inhibition of TPC1 (ITPC1, value at 0 µM = 1)","[3]; 30 µM, mean",0.729
same,"Dose-dependent inhibition of TPC1 (ITPC1, value at 0 µM = 1)","[3]; 100 µM, individual patches",0.4994 and 0.4103 and 0.291
same,"Dose-dependent inhibition of TPC1 (ITPC1, value at 0 µM = 1)","[3]; 100 µM, mean",0.4003
same,"Dose-dependent inhibition of TPC1 (ITPC1, value at 0 µM = 1)","[3]; 300 µM, individual patches",0.197 and 0.08086 and 0.1214
same,"Dose-dependent inhibition of TPC1 (ITPC1, value at 0 µM = 1)","[3]; 300 µM, mean",0.1331
same,IC50,"[3]; whole-endolysosome, n = 3 patches, read-out: IC50, inhibition of TPC1",77 ± 2 µM
same,activation of whole-cell ITPC2-LL/AA (in words),"[7]; bath application, symmetric Na^+, 100 µM where stated",ITPC2 was evoked
same,current density,[7]; 5 µM,7.8 pA/pF
same,current density,[7]; 10 µM,11.2294 pA/pF and 9.959 pA/pF and 11.6261 pA/pF and 6.052 pA/pF
same,current density,[7]; 20 µM,17.6973 pA/pF and 20.0248 pA/pF and 34.5739 pA/pF and 9.104 pA/pF
same,current density,[7]; 50 µM,54.3211 pA/pF and 69.6612 pA/pF and 69.313 pA/pF and 27.4087 pA/pF
same,current density,[7]; 100 µM,137.55 pA/pF and 140.785 pA/pF and 150.409 pA/pF and 87.5478 pA/pF
same,current density,[7]; 200 µM,152.165 pA/pF and 168.074 pA/pF and 117.748 pA/pF
same,EC50,[7],60 ± 2 µM
"CNCCC=C1c2ccccc2CCc2ccccc21 [LyNa-VA1.5, Nortriptyline]",ITPC2,[1],1916 ± 361 pA
same,current density,[7]; 10 µM,7.1 pA/pF and 35.8727 pA/pF and 7.336 pA/pF and 16.5636 pA/pF
same,current density,[7]; 20 µM,6.773 pA/pF and 73.7727 pA/pF and 24.3182 pA/pF
same,current density,[7]; 50 µM,14.0091 pA/pF and 121.209 pA/pF and 89.9 pA/pF
same,current density,[7]; 100 µM,57.6545 pA/pF and 164.355 pA/pF and 160.345 pA/pF and 75.7909 pA/pF
same,current density,[7]; 200 µM,154.282 pA/pF and 191.036 pA/pF and 204.236 pA/pF and 114.582 pA/pF
same,current density,[7]; 400 µM,180.164 pA/pF
same,EC50,[7],52 ± 10 µM
